Experimental data reported in paper PMC6367362, “MD001, a Novel Peroxisome Proliferator-activated Receptor α/γ Agonist, Improves Glucose and Lipid Metabolism” (Scientific Reports, 2019).

Key:
HepG2 cells = assay: Fatty acid oxidation assay ([3H]palmitate), HepG2; assay type: cell-based, human; conditions: 10 μM, 24 h
Experimental: Figure 4 MD001 stimulates fatty acid oxidation in vitro. HepG2 (A), differentiated 3T3-L1 adipocyte (B), and differentiated C2C12 myotubes (C) were treated with vehicle or MD001 (10 μM) for 24 h and total RNA was isolated for cDNA synthesis. Relative gene expressions were analysed by qRT-PCR. HepG2 (D), differentiated 3T3-L1 adipocytes (E), and differentiated C2C12 myotubes (F) were treated with vehicle, MD001 (10 μM), or WY14643 (WY) (10 μM) for 24 h and the fatty acid oxidation rate was analysed as described in the Methods section. To confirm whether the fatty acid oxidation rate enhanced by MD001 is mediated by PPARα, HepG2 (G), differentiated 3T3-L1 (H), and differentiated C2C12 myotubes (I) were transfected with control or PPARα siRNA (20 nM) for 48 h, followed by treatment with vehicle, MD001 (10 μM), or WY14643 (WY) (10 μM) for 24 h. […]
For the fatty acid oxidation assay, cells were incubated in α-MEM (HyClone Laboratories, Inc., Logan, UT, USA) containing 0.1 mM palmitate (9,10-[^3H]palmitate, 5 μci/mL) (PerkinElmer, Waltham, MA, USA) and 1% bovine serum albumin for 24 h. […] After incubation, the vial was removed and radioactivity (^3H2O in water) was quantified using a liquid scintillation counter (LKB Instruments, Victoria, Australia).

PPARα = biological target: T1, PPARα (Homo sapiens, UniProt Q07869); assay: SPR analysis of binding to immobilised HA-PPARα; conditions: MD001 31.25-500 μM
T1 construct: HA; made in house
T1 sequence (Q07869 1-468): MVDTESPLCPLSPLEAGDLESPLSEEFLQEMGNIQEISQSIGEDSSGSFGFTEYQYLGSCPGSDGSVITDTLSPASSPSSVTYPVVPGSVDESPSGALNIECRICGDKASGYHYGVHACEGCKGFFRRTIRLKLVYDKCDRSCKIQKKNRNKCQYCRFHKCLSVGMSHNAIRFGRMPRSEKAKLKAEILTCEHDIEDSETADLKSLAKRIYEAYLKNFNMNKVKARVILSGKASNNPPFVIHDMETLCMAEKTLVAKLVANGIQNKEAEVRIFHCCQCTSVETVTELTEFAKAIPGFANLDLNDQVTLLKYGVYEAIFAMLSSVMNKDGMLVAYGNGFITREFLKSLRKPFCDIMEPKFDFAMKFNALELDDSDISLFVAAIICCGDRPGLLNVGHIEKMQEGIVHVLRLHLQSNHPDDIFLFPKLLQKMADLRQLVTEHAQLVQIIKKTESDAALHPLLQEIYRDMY
Experimental: SPR analysis was performed using a Reichert SR7500DC (Reichert Technologies, Depew, NY, USA). HA-PPARα, HA-PPARβ/δ, and HA-PPARγ were purified as previously described[23] and was immobilised on CMDH chips (Reichert Technologies) according to the manufacturer’s instructions. MD001 was loaded in a dose-dependent manner (31.25, 62.5, 125, 250, and 500 μM) for the SPR assay. The dissociation constant (KD) value was determined using the Scrubber2 program (Informer Technologies, Inc., Los Angeles, CA, USA).

## Cc1c(O)cc(O)c2c(-c3ccccc3)c(C(=O)/C=C/c3ccccc3)c(=O)oc12 [MD001]
HepG2 cells
  β-oxidation rate (fatty acid oxidation): significantly increased
PPARα
  Kd: 9.55 ± 0.8 µM
